The target of one experiment is T1, ATM (Homo sapiens, UniProt Q13315).
T1 construct: detecting phosphorylation of Chk2 in a human non-small cell lung cancer cell line NCI-H460 (ATCC company); host or cells: NCI-H460 human non-small cell lung cancer cells
Briefly: ATM inhibition test (phosphorylation of Chk2 generated by ionizing radiation, AlphaScreen SureFire). Conditions: phosphorylated Chk2 in NCI-H460 cells, ionizing radiation 8Gy, 1 hour after test compound treatment; read-out: ATM inhibitory activity. In kind it is cell-based. Put shortly: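 Phosphorylated Chk2 read by AlphaScreen SureFire in human non-small cell lung cancer NCI-H460 cells, 1 hour after 8Gy ionizing radiation at 37° C. Compound added 1 hour before irradiation. Percent inhibition normalised between irradiated and non-irradiated drug-untreated signals.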
In general terms: Alpha assays give light when donor and acceptor beads are brought close together.

Experiment [1] has as its system human non-small cell lung cancer cell line NCI-H460. As to the kind of experiment: Cell proliferation inhibition test by sensitivity-enhancing to ionizing radiation (Cell Titer Glo). Conditions: concentration in which SER became 2, NCI-H460 cells, ionizing radiation 2 Gy, cultured 120 hour. It is filed as cell-based. Put shortly:
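Radiosensitisation measured as SER, a ratio of Cell Titer Glo luminescence in irradiated vs unirradiated plates relative to DMSO; SER2, the concentration yielding SER 2, came from sigmoidal regression. Compound (0.1% DMSO) was given 24 h post-seeding, 2 Gy applied 30 min later, then 120 hour culture at 37° C.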
For orientation: ATP-based viability assays read luminescence as a measure of living cells.

Where only a bound is given, the exact number is not on record here.

T1 sequence (Q13315 whole entry): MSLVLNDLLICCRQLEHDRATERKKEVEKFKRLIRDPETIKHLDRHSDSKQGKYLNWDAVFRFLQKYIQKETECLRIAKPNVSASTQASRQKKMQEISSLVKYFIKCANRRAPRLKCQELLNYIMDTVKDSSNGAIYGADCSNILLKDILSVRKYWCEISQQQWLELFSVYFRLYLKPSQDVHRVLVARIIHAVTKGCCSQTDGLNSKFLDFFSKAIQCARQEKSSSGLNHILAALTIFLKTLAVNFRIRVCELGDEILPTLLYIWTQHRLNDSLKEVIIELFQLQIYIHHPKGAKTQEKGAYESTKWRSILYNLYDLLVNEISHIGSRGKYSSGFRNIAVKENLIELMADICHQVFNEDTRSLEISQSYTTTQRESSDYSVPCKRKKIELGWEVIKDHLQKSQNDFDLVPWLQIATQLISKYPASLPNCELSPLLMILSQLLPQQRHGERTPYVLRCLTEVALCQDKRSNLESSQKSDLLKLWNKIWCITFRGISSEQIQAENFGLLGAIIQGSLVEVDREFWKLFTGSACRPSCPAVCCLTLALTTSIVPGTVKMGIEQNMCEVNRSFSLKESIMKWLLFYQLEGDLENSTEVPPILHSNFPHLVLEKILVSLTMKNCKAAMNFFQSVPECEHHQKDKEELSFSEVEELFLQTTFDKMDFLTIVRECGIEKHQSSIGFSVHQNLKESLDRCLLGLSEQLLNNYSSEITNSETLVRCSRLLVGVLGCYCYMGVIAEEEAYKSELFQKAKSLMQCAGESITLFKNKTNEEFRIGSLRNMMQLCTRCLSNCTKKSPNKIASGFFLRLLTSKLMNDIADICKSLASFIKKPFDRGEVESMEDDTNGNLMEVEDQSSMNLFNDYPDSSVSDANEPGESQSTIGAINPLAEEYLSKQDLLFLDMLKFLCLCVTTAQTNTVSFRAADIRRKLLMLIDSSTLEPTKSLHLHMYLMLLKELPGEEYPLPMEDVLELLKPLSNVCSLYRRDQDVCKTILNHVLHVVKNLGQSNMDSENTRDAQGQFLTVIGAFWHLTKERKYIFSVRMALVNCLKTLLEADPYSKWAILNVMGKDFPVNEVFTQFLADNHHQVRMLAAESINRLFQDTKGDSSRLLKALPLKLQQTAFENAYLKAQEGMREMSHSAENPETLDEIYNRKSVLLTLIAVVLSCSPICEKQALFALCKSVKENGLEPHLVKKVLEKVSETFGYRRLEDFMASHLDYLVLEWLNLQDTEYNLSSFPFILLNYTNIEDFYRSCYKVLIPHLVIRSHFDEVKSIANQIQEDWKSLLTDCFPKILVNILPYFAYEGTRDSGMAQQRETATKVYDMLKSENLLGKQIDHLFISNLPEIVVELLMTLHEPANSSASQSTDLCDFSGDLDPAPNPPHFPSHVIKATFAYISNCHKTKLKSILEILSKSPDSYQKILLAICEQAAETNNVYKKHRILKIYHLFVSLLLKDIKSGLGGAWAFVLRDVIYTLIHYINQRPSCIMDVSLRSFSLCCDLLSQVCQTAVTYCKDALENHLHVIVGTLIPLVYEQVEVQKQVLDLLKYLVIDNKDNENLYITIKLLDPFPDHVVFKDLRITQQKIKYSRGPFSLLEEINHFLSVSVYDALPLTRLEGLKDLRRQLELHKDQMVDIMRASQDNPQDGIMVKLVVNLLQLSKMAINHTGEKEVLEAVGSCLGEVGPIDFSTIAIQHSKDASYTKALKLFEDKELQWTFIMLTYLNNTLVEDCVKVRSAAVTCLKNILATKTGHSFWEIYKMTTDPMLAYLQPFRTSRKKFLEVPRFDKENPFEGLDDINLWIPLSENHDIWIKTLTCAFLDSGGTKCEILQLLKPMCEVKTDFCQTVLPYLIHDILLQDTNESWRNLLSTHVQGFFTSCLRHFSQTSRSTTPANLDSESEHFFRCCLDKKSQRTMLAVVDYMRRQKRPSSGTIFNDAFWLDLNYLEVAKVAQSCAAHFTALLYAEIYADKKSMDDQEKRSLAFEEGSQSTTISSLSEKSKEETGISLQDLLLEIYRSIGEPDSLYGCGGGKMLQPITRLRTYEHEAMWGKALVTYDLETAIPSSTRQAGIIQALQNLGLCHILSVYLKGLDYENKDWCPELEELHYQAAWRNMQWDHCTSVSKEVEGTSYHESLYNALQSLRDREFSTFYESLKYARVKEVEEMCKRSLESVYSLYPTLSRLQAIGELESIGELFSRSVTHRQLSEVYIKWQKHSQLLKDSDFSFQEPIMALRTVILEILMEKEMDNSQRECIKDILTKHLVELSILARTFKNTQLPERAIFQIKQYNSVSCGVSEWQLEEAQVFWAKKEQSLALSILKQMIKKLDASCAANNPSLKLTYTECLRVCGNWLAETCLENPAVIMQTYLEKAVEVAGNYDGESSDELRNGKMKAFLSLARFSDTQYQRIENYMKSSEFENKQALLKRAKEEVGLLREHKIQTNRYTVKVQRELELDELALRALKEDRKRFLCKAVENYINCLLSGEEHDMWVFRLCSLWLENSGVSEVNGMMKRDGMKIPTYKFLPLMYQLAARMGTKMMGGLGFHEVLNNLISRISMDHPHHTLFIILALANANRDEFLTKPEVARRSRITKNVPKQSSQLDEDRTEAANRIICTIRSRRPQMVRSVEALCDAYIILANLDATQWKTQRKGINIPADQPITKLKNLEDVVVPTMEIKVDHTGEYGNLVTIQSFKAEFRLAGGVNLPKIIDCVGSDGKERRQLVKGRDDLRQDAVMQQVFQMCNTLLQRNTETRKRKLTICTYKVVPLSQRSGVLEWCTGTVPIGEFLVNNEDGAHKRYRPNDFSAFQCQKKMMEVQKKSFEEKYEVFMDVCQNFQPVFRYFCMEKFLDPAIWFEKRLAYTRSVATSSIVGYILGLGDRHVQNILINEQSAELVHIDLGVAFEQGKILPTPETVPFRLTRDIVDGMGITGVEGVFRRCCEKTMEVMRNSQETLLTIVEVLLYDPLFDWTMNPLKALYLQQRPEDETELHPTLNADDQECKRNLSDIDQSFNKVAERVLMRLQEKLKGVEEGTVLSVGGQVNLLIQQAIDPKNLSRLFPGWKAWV

For `COC(=O)C(Nc1ccc2c(c1)Sc1cccc(-c3cc(N4CCOCC4)cc(=O)[nH]3)c1S2)c1ccc(C)cn1` (stereo not drawn) [Example 1-12-108, Methyl 2-(5-methylpyridin-2-yl)-2-((6-(4-morpholino-6-oxo-1,6-dihydropyridin-2-yl)thianthren-2-yl)amino) acetate], the IC50 on ATM is less than 100 nM. For the same compound, the SER2 (concentration at which the radiation sensitivity-enhancement ratio reaches 2) in experiment [1] (Homo sapiens, NCI-H460, 120 h) fell in the range of 100 to 500 nM.

As for `Cc1cnc(C(C)Nc2ccc3c(c2)Cc2cccc(-c4cc(N5CCOCC5)cc(=O)[nH]4)c2O3)cn1` (single isomer, unassigned) [Example 2-14-90-2, 6-(7-((1-(5-methylpyrazin-2-yl)ethyl)amino)-9H-xanthen-4-yl)-4-morpholinopyridin-2(1H)-one], on ATM, the IC50 is less than 100 nM. The SER2 (concentration at which the radiation sensitivity-enhancement ratio reaches 2) in experiment [1] (Homo sapiens, NCI-H460, 120 h) was less than 100 nM.

For `CC(CN1CCOCC1)Nc1ccc2c(c1)Sc1cccc(-c3cc(N4CCOCC4)cc(=O)[nH]3)c1S2` (single isomer, unassigned) [Example 1-13-2-2, 4-morpholino-6-(7-((1-morpholinopropan-2-yl)amino)thianthren-1-yl)pyridin-2(1H)-one], at ATM, the IC50 is less than 100 nM. Further, the SER2 (concentration at which the radiation sensitivity-enhancement ratio reaches 2) in experiment [1] (Homo sapiens, NCI-H460, 120 h) was less than 100 nM.

On to `COC[C@H](CN1CCOC[C@@H]1C)Nc1ccc2c(c1)Sc1cccc(-c3cc(N4CCOCC4)cc(=O)[nH]3)c1S2` [Example 1-46-5, 6-(7-(((S)-1-Methoxy-3-((S)-3-methylmorpholino)propan-2-yl)amino)thianthren-1-yl)-4-morpholino pyridin-2(1H)-one], for which the IC50 on ATM was less than 100 nM. For the same compound, the SER2 (concentration at which the radiation sensitivity-enhancement ratio reaches 2) in experiment [1] (Homo sapiens, NCI-H460, 120 h) fell in the range of 100 to 500 nM.

Regarding `[2H]C([2H])([2H])C(Nc1ccc2c(c1)Sc1cccc(-c3cc(N4CCOCC4)cc(=O)[nH]3)c1S2)c1cccc(F)n1` (stereo not drawn) [Example 1-12-134, 4-Morpholino-6-(7-((2,2,2-trideutero-1-(6-fluoropyridin-2-yl)ethyl)amino)thianthren-1-yl) pyridin-2(1H)-one], the IC50 on ATM was less than 100 nM. For the same compound, the SER2 (concentration at which the radiation sensitivity-enhancement ratio reaches 2) in experiment [1] (Homo sapiens, NCI-H460, 120 h) lay within 100 to 500 nM.

As to `Cc1ccc(C2(Nc3ccc4c(c3)Sc3cccc(-c5cc(N6CCOCC6)cc(=O)[nH]5)c3S4)COC2)nc1` [Example 1-50-4, 6-(7-((3-(5-Methylpyridin-2-yl)oxetan-3-yl)amino)thianthren-1-yl)-4-morpholino pyridin-2(1H)-one], at ATM, the IC50 is less than 100 nM. In experiment [1] (Homo sapiens, NCI-H460, 120 h), the SER2 (concentration at which the radiation sensitivity-enhancement ratio reaches 2) was 100 to 500 nM.

Consider `O=c1cc(N2CCOCC2)cc(-c2cccc3c2Oc2ccc(NCc4ccc(Cl)nc4)cc2S3)[nH]1` [Example 4-8-25, 6-(8-(((6-Chloropyridin-3-yl)methyl)amino)phenoxathiin-4-yl)-4-morpholino pyridin-2(1H)-one], for which, at ATM, the IC50 was less than 100 nM. For the same compound, the SER2 (concentration at which the radiation sensitivity-enhancement ratio reaches 2) in experiment [1] (Homo sapiens, NCI-H460, 120 h) was in the range of 100 to 500 nM.

As to `Cc1cccc(C(C)Nc2ccc3c(c2)Cc2cccc(-c4cc(N5CCOCC5)cc(=O)[nH]4)c2O3)n1` (single isomer, unassigned) [Example 2-14-85-2, 6-(7-((1-(6-methylpyridin-2-yl)ethyl)amino)-9H-xanthen-4-yl)-4-morpholinopyridin-2(1H)-one], the IC50 on ATM was less than 100 nM. In addition, the SER2 (concentration at which the radiation sensitivity-enhancement ratio reaches 2) in experiment [1] (Homo sapiens, NCI-H460, 120 h) was less than 100 nM.

As for `CC(Nc1ccc2c(c1)Sc1cccc(-c3cc(N4CCOCC4)cc(=O)[nH]3)c1S2)c1nccc(CF)n1` (stereo not drawn) [Example 1-12-85, 6-(7-((1-(4-(Fluoromethyl)pyrimidin-2-yl)ethyl)amino)thianthren-1-yl)-4-morpholino pyridin-2(1H)-one], the IC50 on ATM is less than 100 nM. In addition, the SER2 (concentration at which the radiation sensitivity-enhancement ratio reaches 2) in experiment [1] (Homo sapiens, NCI-H460, 120 h) is less than 100 nM.

Consider `CC(Nc1ccc2c(c1)Sc1cccc(-c3cc(N4CCOCC4)cc(=O)[nH]3)c1S2)c1cnccn1` (stereo not drawn) [Example 1-12-63, 4-Morpholino-6-(7-((1-(pyrazin-2-yl)ethyl)amino)thianthren-1-yl)pyridin-2 (1H)-one], for which the IC50 at ATM is less than 100 nM. For the same compound, the SER2 (concentration at which the radiation sensitivity-enhancement ratio reaches 2) in experiment [1] (Homo sapiens, NCI-H460, 120 h) was in the range of 100 to 500 nM.

In the case of `O=c1cc(N2CCOCC2)cc(-c2cccc3c2Sc2ccc(NCCN4CC5(COC5)C4)cc2S3)[nH]1` [Example 1-16-3, 6-(7-((2-(2-Oxa-6-azaspiro[3.3]heptan-6-yl)ethyl)amino)thianthren-1-yl)-4-morpholinopyridin-2(1H)-one], the IC50 on ATM was less than 100 nM. Moreover, the SER2 (concentration at which the radiation sensitivity-enhancement ratio reaches 2) in experiment [1] (Homo sapiens, NCI-H460, 120 h) fell in the range of 100 to 500 nM.

On to `COC(C)(C)c1cncc(CNc2ccc3c(c2)Cc2cccc(-c4cc(N5CCOCC5)cc(=O)[nH]4)c2O3)c1` [Example 2-14-12, 6-(7-(((5-(2-Methoxypropan-2-yl)pyridin-3-yl)methyl)amino)-9H-xanthen-4-yl)-4-morpholino pyridin-2 (1H)-one], for which the IC50 at ATM is less than 100 nM. Further, the SER2 (concentration at which the radiation sensitivity-enhancement ratio reaches 2) in experiment [1] (Homo sapiens, NCI-H460, 120 h) was 100 to 500 nM.

Take `CC(Nc1ccc2c(c1)Sc1cccc(-c3cc(N4CCOCC4)cc(=O)[nH]3)c1S2)c1nccc(C(F)F)n1` (stereo not drawn) [Example 1-12-87, 6-(7-((1-(4-(Difluoromethyl)pyrimidin-2-yl)ethyl)amino)thianthren-1-yl)-4-morpholino pyridin-2(1H)-one]: the IC50 at ATM is less than 100 nM. In addition, the SER2 (concentration at which the radiation sensitivity-enhancement ratio reaches 2) in experiment [1] (Homo sapiens, NCI-H460, 120 h) lay within 100 to 500 nM.

On to `Cc1ccc(C(Nc2ccc3c(c2)Sc2cccc(-c4cc(N5CCOCC5)cc(=O)[nH]4)c2S3)C2CN(C)CCO2)nc1` (single isomer, unassigned) [Example 1-52-2, 6-(7-(((4-methylmorpholin-2-yl)(5-methylpyridin-2-yl)methyl)amino)thianthren-1-yl)-4-morpholinopyridin-2(1H)-one], for which the IC50 on ATM is less than 100 nM. The SER2 (concentration at which the radiation sensitivity-enhancement ratio reaches 2) in experiment [1] was less than 100 nM.

For the compound `Cc1cnc(C(C)Nc2ccc3c(c2)Sc2cccc(-c4cc(N5CCOCC5)cc(=O)[nH]4)c2S3)cn1` (stereo not drawn) [Example 1-12-64, 6-(7-((1-(5-Methylpyrazin-2-yl)ethyl)amino)thianthren-1-yl)-4-morpholino pyridin-2(1H)-one], the IC50 at ATM was less than 100 nM. Also, the SER2 (concentration at which the radiation sensitivity-enhancement ratio reaches 2) in experiment [1] (Homo sapiens, NCI-H460, 120 h) is less than 100 nM.

In the case of `O=c1cc(N2CCOCC2)cc(-c2cccc3c2Sc2ccc(NC4CCCN(Cc5cccnc5)C4)cc2S3)[nH]1` (stereo not drawn) [Example 1-24-2, 4-Morpholine-6-(7-((1-(pyridin-3-ylmethyl)piperidin-3-yl)amino)thianthren-1-yl)pyridin-2 (1H)-one], the IC50 on ATM was less than 100 nM. Besides, in experiment [1] (Homo sapiens, NCI-H460, 120 h), the SER2 (concentration at which the radiation sensitivity-enhancement ratio reaches 2) lay within 100 to 500 nM.

Turning to `O=c1cc(N2CCOCC2)cc(-c2cccc3c2Sc2ccc(NCc4cc(C5CC5)ccn4)cc2S3)[nH]1` [Example 1-12-14, 6-(7-(((4-Cyclopropylpyridin-2-yl)methyl)amino)thianthren-1-yl)-4-morpholino pyridin-2(1H)-one], the IC50 on ATM was less than 100 nM. Moreover, the SER2 (concentration at which the radiation sensitivity-enhancement ratio reaches 2) in experiment [1] (Homo sapiens, NCI-H460, 120 h) is 100 to 500 nM.

With `O=c1cc(N2CCOCC2)cc(-c2cccc3c2Oc2ccc(NCc4cnc5ccccc5c4)cc2S3)[nH]1` [Example 4-4-15, 4-Morpholino-6-(8-((quinolin-3-ylmethyl)amino)phenoxathiin-4-yl) pyridin-2(1H)-one], the IC50 on ATM was less than 100 nM. Also, the SER2 (concentration at which the radiation sensitivity-enhancement ratio reaches 2) in experiment [1] (Homo sapiens, NCI-H460, 120 h) was 100 to 500 nM.

As for `Cc1cnc(C(C)Nc2ccc3c(c2)Sc2cccc(-c4cc(N5CCOCC5)cc(=O)[nH]4)c2S3)nc1` (single isomer, unassigned) [Example 1-12-139-1, 6-(7-((1-(5-methylpyrimidin-2-yl)ethyl)amino)thianthren-1-yl)-4-morpholinopyridin-2(1H)-one], on ATM, the IC50 is less than 100 nM. Also, the SER2 (concentration at which the radiation sensitivity-enhancement ratio reaches 2) in experiment [1] (Homo sapiens, NCI-H460, 120 h) is less than 100 nM.

Regarding `N#Cc1cccc(CNc2ccc3c(c2)Sc2cccc(-c4cc(N5CCOCC5)cc(=O)[nH]4)c2S3)n1` [Example 1-12-38, 6-(((6-(4-Morpholino-6-oxo-1,6-dihydropyridin-2-yl)thianthren-2-yl)amino)methyl)picolinonitrile], the IC50 at ATM is less than 100 nM. In addition, the SER2 (concentration at which the radiation sensitivity-enhancement ratio reaches 2) in experiment [1] (Homo sapiens, NCI-H460, 120 h) was less than 100 nM.

Take `Cc1cncc(C(C)Nc2ccc3c(c2)Sc2cccc(-c4cc(N5CCOCC5)cc(=O)[nH]4)c2S3)n1` (stereo not drawn) [Example 1-12-73, 6-(7-((1-(6-Methylpyrazin-2-yl)ethyl)amino)thianthren-1-yl)-4-morpholino pyridin-2 (1H)-one]: on ATM, the IC50 is less than 100 nM. Further, the SER2 (concentration at which the radiation sensitivity-enhancement ratio reaches 2) in experiment [1] (Homo sapiens, NCI-H460, 120 h) is less than 100 nM.

As for `CC(Nc1ccc2c(c1)Cc1cccc(-c3cc(N4CCOCC4)cc(=O)[nH]3)c1O2)c1cccc(F)n1` (stereo not drawn) [Example 2-14-21, 6-(7-((1-(6-Fluoropyridin-2-yl)ethyl)amino)-9H-xanthen-4-yl)-4-morpholino pyridin-2(1H)-one], the IC50 at ATM was less than 100 nM. Moreover, in experiment [1] (Homo sapiens, NCI-H460, 120 h), the SER2 (concentration at which the radiation sensitivity-enhancement ratio reaches 2) fell in the range of 100 to 500 nM.

Turning to `CN(C)c1nccc(CNc2ccc3c(c2)Cc2cccc(-c4cc(N5CCOCC5)cc(=O)[nH]4)c2O3)n1` [Example 2-13-5, 6-(7-(((2-(Dimethylamino)pyrimidin-4-yl)methyl)amino)-9H-xanthen-4-yl)-4-morpholino pyridin-2(1H)-one], at ATM, the IC50 is less than 100 nM. In addition, the SER2 (concentration at which the radiation sensitivity-enhancement ratio reaches 2) in experiment [1] (Homo sapiens, NCI-H460, 120 h) fell in the range of 500 to 2000 nM.

`COc1cc(CNc2ccc3c(c2)Cc2cccc(-c4cc(N5CCOCC5)cc(=O)[nH]4)c2O3)cnc1OC` [Example 2-2-35, 6-(7-(((5,6-Dimethoxypyridin-3-yl)methyl)amino)-9H-xanthen-4-yl)-4-morpholino pyridin-2(1H)-one]: at ATM, the IC50 was less than 100 nM. For the same compound, the SER2 (concentration at which the radiation sensitivity-enhancement ratio reaches 2) in experiment [1] (Homo sapiens, NCI-H460, 120 h) was 500 to 2000 nM.

The values above are taken from US9586951B2 (FUJIFILM Corporation, priority 2013, dated 2017).
